# Reference: patent publication US20070197562A1, “Remedies for prostatic hypertrophy” (Yokohama TLO Company, Ltd., priority 2004, published 2007)
# Key:
# Type in all cases: cell-based, human
# PrSC cells [1] = assay: Losartan: proliferation of PrSC cells in 10% FCS (Example 8); conditions: 5 days
# Procedure: PrSC cells were plated out on a 12-well dish at 20,000 cells per well, and cultured for 5 days in a phenol red-free F12 culture medium containing 10% (V/V) FCS and losartan at various concentrations (0, 0.1, 1.0, and 10 μM). Then the number of cells was counted. The group with no additive was used as the control group. Each group contained four wells (n=4).
# PrSC cells [2] = assay: Losartan: proliferation of TNFα-stimulated PrSC cells (Example 9); conditions: 5 days
# Procedure: PrSC cells were plated out on a 12-well dish at 25,000 cells per well, and cultured for 5 days in a phenol red-free F12 culture medium supplemented with 0.1% (W/V) BSA containing TNFα (1 ng/mL) and/or losartan (10 μM). Then the number of cells was counted. The group with no additive was used as the control group. Each group contained four wells (n=4).
# [3] = test system: MAPK phosphorylation in PC-3 cells; assay: MAPK phosphorylation in PC-3 cells cultured in PrSC conditioned media (Western blotting)
# Procedure: Stromal cells (PrSC) were cultured in a phenol red-free F12 medium containing 0.1% (W/V) BSA, to which angiotensin II (10 μM) was added alone or in combination with losartan (“Los”; 10 μM). The culture medium was collected 24 hours after the addition, and used as a conditioned medium (“0.1% BSA-CM”).
# Stromal cells (PrSC) were cultured in a phenol red-free F12 medium containing 10% (V/V) FCS, to which CV (10 μM) or losartan (10 μM) was added. The culture medium was collected 24 hours after the addition, and used as a conditioned medium (“10% FCS-CM”) with no addition of angiotensin II. 10% FCS-CM with no additive was also prepared in the same manner.
# 3,000,000 PrSC cells were used for each of the above 10-1 and 10-2
# PC3 cells (prostate cancer cells) were cultured for 24 hours in a phenol red-free F12 medium supplemented with 0.1% (W/V) BSA. Then the medium was replaced with one of the conditioned media prepared as described above, and the cells were collected 10 minutes later. Total cellular proteins were extracted as described below. Similar protocol was done in parallel for PC-3 cells without using any conditioned medium (“Control”).
# The cells were washed twice with an ice-cold phosphate buffer (PBS), and lysed in 200 μL of an ice-cold cell lysis solution (lysis buffer; 20 mM of Tris (pH8.0), 137 mM of NaCl, 10% of glycerol, 0.1% of SDS, 0.5% of Nonidet P-40 (trade name), 100 mM of sodium fluoride, […] of sodium orthovanadate, 1 mM of EGTA, 2 mM of phenylmethylsulfonyl fluoride, […] of leupeptin, and […] of aprotinin). The mixture was centrifuged. Subsequently, the supernatant was collected.
# The resulting protein sample was subjected to SDS-PAGE in the routine manner, and the MAPK phosphorylation was determined by Western blotting using an anti-phospho-MAP kinase antibody or an anti-MAP kinase antibody) (both were purchased from Cell Signaling Technology (Beverly, Mass.)) as the detecting antibody.
# From the obtained results, the expression levels of pMAPK and MAPK bands were determined using NIH image software. On the basis of the results, the pMAPK/MAPK ratio in each lane was calculated, and then the ratio (“pMAPK ratio”) of the obtained value of each lane to that of the lane 1 (“Control”) was calculated by taking the value of Control as 1.
# [4] = test system: MAPK phosphorylation in PrSC cells; assay: MAPK phosphorylation in PrSC cells (Western blotting)
# Procedure: Stromal cells (PrSC) were cultured for 24 hours in a phenol red-free F12 medium containing 0.1% (W/V) BSA, to which angiotensin II (10 μM) or TNFα (1 ng/mL) was added each alone or in combination with either CV (10 μM) or losartan (“Los”; 10 μM) by replacing the medium. The cells were collected 10 minutes after the addition, and the total cellular proteins were extracted in the same manner as described in Example 10. Similarly, the cells cultured with no additive and the cells added with either CV or Los alone were processed in parallel. 3,000,000 PrSC cells were used for each sample.
# These samples were subjected to Western blotting in the same manner as described in Example 10.
# PrSC cells [5] = assay: Telmisartan: proliferation of EGF- or TNFα-stimulated PrSC cells (Example 7); conditions: 5 days, P<0.01
# Procedure: PrSC cells were plated out on a 12-well dish at 25,000 cells per well, and cultured for 5 days in a phenol red-free F12 culture medium supplemented with 0.1% (W/V) BSA containing EGF (10 ng/mL) or TNFα (1 ng/mL), each alone or in combination with telmisartan (50 μM). Then the number of cells was counted. The group with no additive was used as the control group. Each group contained four wells (n=4).
# PrSC cells [6] = assay: Proliferation of PrSC cells stimulated with angiotensin II, TGFβ or EGF (cell count, Examples 1-3); conditions: 5 days
# Procedure: A Cell Line Derived from Normal Human Prostatic stromal cells, i.e., PrSC cells, was purchased from Sanko Junyaku Co. Ltd. (Normal Human Prostate Stromal Cells, catalogue number CC-2508), and maintained by subculturing them in a phenol red-free RPMI medium under conditions of 5% CO2 and 37° C.
# The PrSC cells (10^4 cells) were placed in a 12-well dish, and cultured in a phenol red-free medium containing 0.1% (W/V) BSA under conditions of 5% CO2 and 37° C. for several days. Then, 1 μM or 10 μM of angiotensin II was added. To some wells, CV (10 μM; hereinafter CV was used at this concentration unless otherwise noted) was added as an AIIR blocker 4 hours before adding angiotensin II. Each group contained four wells (n=4). After culturing the cells at 5% CO2 and 37° C. for 5 days, the number of all cells in each of the wells was counted.
# The effect of an AIIR blocker was examined in the same manner as Example 1, except for that 10 ng/mL of TGFβ was used in place of angiotensin II.
# The effect of an AIIR blocker was examined in the same manner as Example 1, except for that 10 ng/mL of EGF was used in place of angiotensin II.
# PrSC cells [7] = assay: IL-6 secretion by PrSC cells (CLEIA); conditions: 24 hours
# Procedure: PrSC cells prepared in the same manner as Example 1, or F-1 or FT-FB cells prepared as described above were placed in a 6-well dish at 10^5 cells per well, cultured at 5% CO2 and 37° C. for 1 day (24 hours), and stimulated by the addition of TGFβ (1 ng/mL), TNFα (1 ng/mL), EGF (2.5 or 10 ng/mL), or angiotensin II (1 μM or 10 μM) (n=3). CV was added as the AIIR blocker to some wells 4 hours before adding the reagents. The culture media were collected 24 hours after adding the reagents, and the concentrations of IL-6 were determined by the CLEIA method.
# PrSC cells [8] = assay: Olmesartan: proliferation of TNFα-stimulated PrSC cells (Example 6); conditions: TNFα (1 ng/mL) alone; 5 days; P<0.01
# Procedure: PrSC cells were plated out on a 12-well dish at 20,000 cells per well, and cultured for 5 days in a phenol red-free F12 culture medium supplemented with 0.1% (W/V) BSA containing TNFα (1 ng/mL) alone or in combination with olmesartan (1 μM). Then the number of cells was counted. The group with no additive was used as the control group. Each group contained four wells (n=4).
# F-1 cells = assay: IL-6 secretion by primary-cultured F-1 cells (CLEIA); conditions: angiotensin II 1 μM and 10 μM alone; 24 hours
# Procedure: The primary-cultured stromal cells (F-1 cells) derived from a patient with prostatic hypertrophy were prepared as described below.
# Tissues obtained from the patient were placed in a 50 mL centrifuge tube containing 20 mL of a medium (RPMI 1640, GIBCO 11835-030) supplemented with 10% (V/V) FBS (filtron) and mg/mL penicillin/streptomycin (GIBCO 15140-122), and allowed to stand at 4° C. for 1 hour or longer. Subsequently, the tissues were placed in a 10-cm dish, and cut into pieces of about 1 mm square. Blood vessels and the like were removed. At that time, to remove excessive blood (if necessary), the tissues were washed by adding 20 mL of the medium and centrifuging the mixture for 5 minutes at 1,000 rpm, followed by aspiration of the supernatant. […]
# PrSC cells prepared in the same manner as Example 1, or F-1 or FT-FB cells prepared as described above were placed in a 6-well dish at 10^5 cells per well, cultured at 5% CO2 and 37° C. for 1 day (24 hours), and stimulated by the addition of TGFβ (1 ng/mL), TNFα (1 ng/mL), EGF (2.5 or 10 ng/mL), or angiotensin II (1 μM or 10 μM) (n=3). […] The culture media were collected 24 hours after adding the reagents, and the concentrations of IL-6 were determined by the CLEIA method.
molecule,measurement,setting,value
CCCCc1nc(Cl)c(CO)n1Cc1ccc(-c2ccccc2-c2nn[nH]n2)cc1 [losartan],"cell proliferation, difference from control","PrSC cells [1]; losartan 10 μM, P<0.05",significant difference
same,cell proliferation vs control,"PrSC cells [1]; losartan 0.1, 1.0 and 10 μM",dose-dependently suppressed
same,increase in the number of cells,"PrSC cells [2]; TNFα (1 ng/mL)+losartan (10 μM), P<0.02",significantly suppressed
same,cell proliferation vs control,PrSC cells [2]; losartan (10 μM) alone,showed no change
same,MAPK phosphorylation in PC-3 cells,"[3]; 0.1% BSA-CM from PrSC with angiotensin II (10 μM)+losartan (10 μM), lane 3 vs lane 2, 10 minutes",suppressed
same,MAPK phosphorylation in PC-3 cells,"[3]; 10% FCS-CM from PrSC with AIIR blocker 10 μM, no angiotensin II, lanes 5 and 6 vs lane 4, 10 minutes",suppressed
same,MAPK phosphorylation in PrSC cells,"[4]; AIIR blocker 10 μM added alone, lanes 8 and 9",not caused
same,MAPK phosphorylation in PrSC cells,"[4]; TNFα (1 ng/mL) in combination with AIIR blocker 10 μM, lanes 6 and 7, 10 minutes",suppressed
same,MAPK phosphorylation in PrSC cells,"[4]; angiotensin II (10 μM) in combination with AIIR blocker 10 μM, lanes 3 and 4, 10 minutes",suppressed
"CCCc1nc2c(C)cc(-c3nc4ccccc4n3C)cc2n1Cc1ccc(-c2ccccc2C(=O)O)cc1 [telmisartan, 4′-{[4-methyl-6-(1-methyl-2-benzimidazolyl)-2-propyl-1-benzimidazolyl]methyl}-2-biphenylcarboxylic acid]",increase in the number of cells,PrSC cells [5]; EGF (10 ng/mL)+telmisartan (50 μM),significantly suppressed
same,increase in the number of cells,PrSC cells [5]; TNFα (1 ng/mL)+telmisartan (50 μM),significantly suppressed
"EGF: growth factor used to stimulate cells (NSDSECPLSHDGYCLHDGVCMYIEALDKYACNCVVGYIGERCQYRDLKWWELR; Epidermal growth factor; UniProt P01133 971-1023, looked up)",number of cells vs control,PrSC cells [6]; EGF 10 ng/mL alone,significant increase
same,IL-6 secretion vs control,PrSC cells [7]; EGF 2.5 and 10 ng/mL alone,dose-dependent increase
same,number of cells vs control,PrSC cells [5]; EGF (10 ng/mL) alone,significantly increased
TGFβ,"number of cells, increase vs control",PrSC cells [6]; TGFβ 10 ng/mL alone,more than 2 fold
same,IL-6 secretion vs control,PrSC cells [7]; TGFβ (1 ng/mL) alone,significantly promoted
TNFα,IL-6 secretion vs control,PrSC cells [7]; TNFα (1 ng/mL) alone,significantly promoted
same,number of cells vs control,PrSC cells [8],significantly increased
same,number of cells vs control,PrSC cells [5]; TNFα (1 ng/mL) alone,significantly increased
same,number of cells vs control,"PrSC cells [2]; TNFα (1 ng/mL) alone, P<0.05",significantly increased
same,MAPK phosphorylation in PrSC cells,"[4]; TNFα (1 ng/mL) alone, lane 5",strongly activated
"angiotensin II (DRVYIHPF; Angiotensin-2; UniProt P01019 25-32, looked up) [stimulant added to cells]",numbers of cells vs control,PrSC cells [6]; angiotensin II 1 μM or 10 μM alone,concentration-dependent increase
same,IL-6 secretion vs control,F-1 cells,significant increase in a concentration-dependent manner
same,MAPK phosphorylation in PC-3 cells,"[3]; 0.1% BSA-CM from PrSC with angiotensin II (10 μM) alone, lane 2",caused
same,MAPK phosphorylation in PrSC cells,"[4]; angiotensin II (10 μM) alone, lane 2",strongly activated
